# Laboratory results published in patent publication US20090105126A1 (priority 2007, published 2009).
# “And” between values parts separate entries of the source, which are not always exact repeats. Identical values can stand only once. Like-named read-outs stand apart in the source and are kept apart here.
# Tests used:
# [1] = Fluorescence anisotropy of entrapped calcein; type: physicochemical; details: calcein probe, excitation 495 nm, emission 520 nm; higher value = more viscous
# Experimental: DPPC was added by ethanol injection to make 5 mg/ml liposome at 50° C. […] Fluorescence anisotropy was measured at an excitation wavelength of 495 nm and emission wavelength of 520 nm. Fluorescence anisotropy is an order parameter, which ranged from 0 to 0.4 in aqueous solution. The higher value indicates more viscous solution.
# [2] = tested on: S. pneumoniae (ATCC 6303); details: for Log CFU/Lung, animals n/N (second line of cell) / Log CFU/mL of Blood, animals n/N (second line of cell) / Log CFU/mL of Blood: Inhalation, BID x 3; for Log CFU/mL of Blood: animals surviving until Day 7; for mice in which S. pneumoniae in the lungs was not eradicated: mice surviving to day 7
# Experimental: Sixty (60) Thirty six (36) female mice (Swiss Webster, Charles River) were received in the vivarium and acclimated for at least 7 days prior to initiation of the protocol. All mice were instilled via nasal insufflation with S. pneumoniae (ATCC, 6303, 4.1×10^4 CFU/ mice) after being anesthetized with Ketamine/Xylazine solution (80 mg/kg and 10 mg/kg). The instillation was performed through the nostrils route using micropipette with tips (Gilson, calibrated with Femt Scientific). The mouse is held by its ears and 20 μl of bacteria are gradually (2 μl per breath) released into the nostrils (10 μl in each nostril) with the help of a micro-pipette. The mice were observed every 10 min until they fully recovered from the anesthesia.
# Mice were dosed on days 1, 2 and 3. There were 5 groups and each group had 12 mice. […] Mice in group 5 received sterile normal saline (0.9% NaCl) by inhalation.
# Determination of bacterial colonies in the lung and blood of mice. Mice that were euthanized prior to day 7 and mice that survived to day 7 were euthanized by CO2 asphyxiation. The blood was collected by cardiac puncture after euthanization. A 1/10 dilution of blood was made in BHI broth immediately. The lungs were removed aseptically, weighed and placed into 1 ml of BHI broth in a sterile 5 ml Polypropylene round-bottom tube.
# Lungs were homogenized sterilely with a Polytron^R (Brinkmann, Rexdale, Ontario, Canada) using the maximum speed in the 5 ml Polypropylene round-bottom tube. The tissues were homogenized until a smooth. Ten-fold dilutions of the lung homogenates were made in BHI broth supplemented with 10 ug/ml of Colistin(C) 5 ug/ml of Oxolinic (O). One hundred (100) ul of each dilution of lung homogenates were plated out onto CBO agar plates and spread. The plates were incubated for 24 hours at 37° C. then colonies were counted.
# [3] = Concentration of vancomycin in the lungs of mice after inhalation therapy (Example 8); details: for [VANCOMYCIN] in Lung, animals n/N (second line of cell): Inhalation, BID x 3; for Vancomycin (μg/g), mean / Vancomycin (μg/lung), mean / Vancomycin (μg/g), individual mice / Vancomycin (μg/lung), individual mice: 4 days after inhalation therapy; for Vancomycin (μg/g), mean / Vancomycin (μg/lung), mean: group mean; for Vancomycin (μg/g), individual mice / Vancomycin (μg/lung), individual mice: listed as Soluble Vancomycin
# Experimental: The instillation was performed through the nostrils route using micropipette with tips (Gilson, calibrated with Femt Scientific). The mouse is held by its ears and 20 μl of bacteria are gradually (2 μl per breath) released into the nostrils (10 μl in each nostril) with the help of a micro-pipette. The mice were observed every 10 min until they fully recovered from the anesthesia.
# There were 5 groups and each group had 12 mice. […] Mice in group 5 received sterile normal saline (0.9% NaCl) by inhalation.
# [4] = tested on: S. pneumoniae (ATCC 6303)
# Experimental: Thirty six (36) female mice (Swiss Webster, Charles River) were received in the vivarium and acclimated for at least 7 days prior to initiation of the protocol. […] Mice were dosed on days 1, 2 and 3. […] Mice in Group 3 received 20 min inhalation with sterile 0.9% NaCl for inhalation (Cardinal, Lot #WBA194). Euthanization and determination of bacterial colonies in blood and lungs were performed as described in Example 8.
# [5] = Intraperitoneal, BID x 3, 12 mg/kg/day
# [6] = Intraperitoneal, BID x 3, 12 mg/kg/day, animals surviving until Day 7
# [7] = intraperitoneal injection 6 mg/kg BID
structure (smiles),measurement,setting,value
"CN[C@H](CC(C)C)C(=O)N[C@H]1C(=O)N[C@@H](CC(N)=O)C(=O)N[C@H]2C(=O)N[C@H]3C(=O)N[C@H](C(=O)N[C@H](C(=O)O)c4cc(O)cc(O)c4-c4cc3ccc4O)[C@H](O)c3ccc(c(Cl)c3)Oc3cc2cc(c3O[C@@H]2O[C@H](CO)[C@@H](O)[C@H](O)[C@H]2O[C@H]2C[C@](C)(N)[C@H](O)[C@H](C)O2)Oc2ccc(cc2Cl)[C@H]1O [Vancomycin solution (15 mg/ml), vancomycin]",Fluorescence anisotropy,[1],0.014
"CN[C@H](CC(C)C)C(=O)N[C@H]1C(=O)N[C@@H](CC(N)=O)C(=O)N[C@H]2C(=O)N[C@H]3C(=O)N[C@H](C(=O)N[C@H](C(=O)O)c4cc(O)cc(O)c4-c4cc3ccc4O)[C@H](O)c3ccc(c(Cl)c3)Oc3cc2cc(c3O[C@@H]2O[C@H](CO)[C@@H](O)[C@H](O)[C@H]2O[C@H]2C[C@](C)(N)[C@H](O)[C@H](C)O2)Oc2ccc(cc2Cl)[C@H]1O [Vancomycin solution (300 mg/ml), vancomycin]",Fluorescence anisotropy,[1],0.17
"CN[C@H](CC(C)C)C(=O)N[C@H]1C(=O)N[C@@H](CC(N)=O)C(=O)N[C@H]2C(=O)N[C@H]3C(=O)N[C@H](C(=O)N[C@H](C(=O)O)c4cc(O)cc(O)c4-c4cc3ccc4O)[C@H](O)c3ccc(c(Cl)c3)Oc3cc2cc(c3O[C@@H]2O[C@H](CO)[C@@H](O)[C@H](O)[C@H]2O[C@H]2C[C@](C)(N)[C@H](O)[C@H](C)O2)Oc2ccc(cc2Cl)[C@H]1O [Vancomycin, vancomycin]",mice showing bacterial level in lungs,"[2]; 3.8 mg/kg/day, 7 days, FIG. 8",> 90%
same,bacterial level in lungs,"[2]; 6.0 mg/kg/day, 7 days, FIG. 8",still showed substantial bacterial level
same,"Log CFU/Lung, animals n/N (second line of cell)",[2]; 3.8 mg/kg/day,11/12
same,"Log CFU/mL of Blood, animals n/N (second line of cell)",[2]; 3.8 mg/kg/day,0/12
same,Log CFU/mL of Blood,[2]; 3.8 mg/kg/day,0 Log CFU/mL
same,"Log CFU/Lung, animals n/N (second line of cell)",[2]; 6.0 mg/kg/day,12/12
same,"Log CFU/mL of Blood, animals n/N (second line of cell)",[2]; 6.0 mg/kg/day,0/12
same,Log CFU/mL of Blood,[2]; 6.0 mg/kg/day,0 Log CFU/mL
same,"Log10 CFU/lung, individual mice","[2]; inhalation 3.8 mg/kg for 3 days, day 7, 1 = limit of detection, no colonies detected",1 Log10 CFU/lung and 2 Log10 CFU/lung
same,mice in which S. pneumoniae in the lungs was not eradicated,[2]; inhaled 3.8 mg/kg,92%
same,bacteria in blood,"[2]; inhaled 6 mg/kg and 3.8 mg/kg, day 7",no bacteria in their blood
same,mice in which S. pneumoniae in the lungs was not eradicated,[2]; inhaled 6 mg/kg,100%
same,Survival,"[2]; inhaled, 6 or 3.8 mg/kg/day on days 1, 2 and 3, 12 mice per group, FIG. 4",100%
same,"[VANCOMYCIN] in Lung, animals n/N (second line of cell)",[3]; 3.8 mg/kg/day,12/12
same,"[VANCOMYCIN] in Lung, animals n/N (second line of cell)",[3]; 6.0 mg/kg/day,12/12
same,"Vancomycin (μg/g), mean",[3]; inhaled 3.8 mg/kg,34 µg/g
same,"Vancomycin (μg/lung), mean",[3]; inhaled 3.8 mg/kg,5 μg/lung
same,"Vancomycin (μg/g), individual mice",[3]; inhaled 3.8 mg/kg,14.0 µg/g and 37.0 µg/g
same,"Vancomycin (μg/lung), individual mice",[3]; inhaled 3.8 mg/kg,5.8 μg/lung and 5.2 μg/lung (2×) and 6.8 μg/lung and 3.4 μg/lung and 4.7 μg/lung (2×) and 5.9 μg/lung and 2.0 μg/lung and 3.6 μg/lung and 8.1 μg/lung and 6.1 μg/lung
same,"Vancomycin (μg/g), mean",[3]; inhaled 6 mg/kg,61 µg/g
same,"Vancomycin (μg/lung), mean",[3]; inhaled 6 mg/kg,10 μg/lung
same,"Vancomycin (μg/g), individual mice",[3]; inhaled 6 mg/kg,42.0 µg/g and 59.0 µg/g and 66.0 µg/g
same,"Vancomycin (μg/lung), individual mice",[3]; inhaled 6 mg/kg,7.6 μg/lung and 8.8 μg/lung and 6.4 μg/lung and 9.7 μg/lung and 9.0 μg/lung and 9.3 μg/lung and 8.3 μg/lung and 14.0 μg/lung and 9.8 μg/lung
same,vancomycin in the lungs,"IP 12 mg/kg/day, day seven, listed as free vancomycin, 12 mg/kg/day",no vancomycin deposition in lung was detected
same,vancomycin in the lungs,"IP injections, 4 days after the end of therapy",No detectable concentrations
same,initial daily lung dose,"IP, based on 4% of the delivered dose in the lungs 30 min post IP injections",15 ug of vancomycin/lung
same,"[VANCOMYCIN] in Lung, animals n/N (second line of cell)",[5],0/12
same,[VANCOMYCIN] in Lung,[6],0 mg/g
same,vancomycin after IP injection,"Six (6) hours after IP injection, Swiss Webster mice",no detectable vancomycin was observed
same,"Log CFU/Lung, animals n/N (second line of cell)",[4]; [5],3/12
same,"Log CFU/mL of Blood, animals n/N (second line of cell)",[4]; [5],5/12
same,Log CFU/Lung,[4]; [6],0.7 ± 1.3 Log CFU/Lung
same,Log CFU/mL of Blood,[4]; [6],1.7 ± 2.1 Log CFU/mL
same,mice in which S. pneumoniae in the lungs was not eradicated,[4]; [7],25%
same,mice in which S. pneumoniae was not eradicated from the blood,[4]; [7],42%
same,mice surviving to day 7,"[4]; intraperitoneal injection 6 mg/kg BID, days 1, 2 and 3, n=12",100%
